# According to US4889800A (priority 1987, dated 1989):
# Values joined by “and” are separate entries in the source; they are usually repeats but may differ in a detail not shown here. Equal values may be shown once. “Also recorded” adds a separate entry of the source. Where no end group is shown, it is not given here.
# Tested on: guinea pigs immunized with mycobacterial cell sonicates
# Settings: guinea pig, in vivo
sequence,measurement,value
"CAKVNIKPLQDKIC (cysteine pairing not given here) [Polypeptide (diCys Terminated), residues 1-12 of the BCG-a protein with Cys at both termini]",DCH Reaction To 250 Micrograms Of Polypeptide (positive DCH reactions/total trials),7/7 and 4/4 and 0/4 and 0/3 and 2/4 and 5/5 and 0/5
same,DCH reaction (in words),most pronounced DCH reactions; also recorded: developed a DCH reaction
same,delayed cutaneous hypersensitivity reaction (in words),more pronounced delayed cutaneous hypersensitivity reaction
